According to patent publication US20260217656A1, “Compounds Affecting KRAS” (UNIVERSITAT DE BARCELONA, priority 2022, published 2026):
“Also recorded” adds a separate entry of the source.

What was measured:
Format in all cases: cell-based, human
[1] = system: ERK and AKT in DLD-1-KO cells; assay: Western blot of AKT and ERK activation in serum-starved DLD-1-KO cells; settings: DLD-1-KO serum-starved cells, 100 μM
Text: DLD-1 (KRASWT/G13D) (clone V15, #HD PAR-086) colorectal adenocarcinoma cell line and DLD-1 knockout of mutant KRAS allele, DLD-1 KO (KRASWT/−) (clone DWT7, #HD105-002), were obtained from Horizon Discovery Ltd. (Cambridge, UK). hTERT-RPE (KRASWT/WT) immortalized retinal pigment epithelial human cell line was obtained from the […] (ATCC). DLD-1 KO cells stably expressing HA-KRAS G12V were previously generated in our laboratory (Cabot et al., 2021). All cells were grown in DMEM-HAM s F12 (1:1) supplemented with 10% foetal bovine serum (Biological Industries, Israel), penicillin, streptomycin, and nonessential amino acids. […]
For analysis of RAS signalling, cells were lysed in a buffer containing 67 mM Tris-HCl pH 6.8 and 2% SDS and then the samples were heated at 97° C. for 15 minutes. Protein concentration of the lysates was assessed using the Lowry method. […]
Comparison of Ras signaling between DLD-1, DLD-1-KO and hTERT-RPE cells treated with P14B since important differences were observed between the viability of cells treated with P14B depending on their expression or lack of expression of oncogenic KRAS, we further studied whether these discrepancies were reflected also in KRAS downstream signaling. Serum-starved cells (0.1% FCS) were treated with P14B (100 μM) and activation of AKT and ERK was evaluated by WB. […]

DLD-1 cells [2] = assay: MTS cell viability assay, DLD-1
Text: (§1) DLD-1 (KRASWT/G13D) (clone V15, #HD PAR-086) colorectal adenocarcinoma cell line and DLD-1 knockout of mutant KRAS allele, DLD-1 KO (KRASWT/−) (clone DWT7, #HD105-002), were obtained from Horizon Discovery Ltd. (Cambridge, UK). hTERT-RPE (KRASWT/WT) immortalized retinal pigment epithelial human cell line was obtained from the […] (ATCC). DLD-1 KO cells stably expressing HA-KRAS G12V were previously generated in our laboratory (Cabot et al., 2021). All cells were grown in DMEM-HAM s F12 (1:1) supplemented with 10% foetal bovine serum (Biological Industries, Israel), penicillin, streptomycin, and nonessential amino acids. Cells were tested once per month for mycoplasma contamination.
(§2) MTS viability assay (CellTiter 96® Aqueous One Solution Cell Proliferation Assay, Promega G3580) was assessed following the company conditions. The absorbance of each well was measured with a multimode plate reader (Spark, Tecan) at 490 nm. The percentage of cell viability was calculated by dividing the absorbance of each well by the average absorbance of the control wells.
Since both inhibition and sustained activation of RAS signaling are related to a decrease in cell survival, we analyzed the viability of the CRC cell lines DLD-1 (expressing oncogenic KRAS) and DLD-1-KO (oncogenic KRAS allele deleted), and the non-transformed cell line hTERT-RPE. […] At the IC50 of approximately 80 μM for DLD-1 cells, the viability of DLD-1-KO and of non-transformed cells was not affected (FIG. 6A). […] The effect of P14B in DLD-1 cells cultured in 3D conditions was also determined. […] Consequently, we conclude that P14B selectively reduces the viability of CRC cells expressing oncogenic KRAS, causing minor effects if these cells have been knocked out for oncogenic KRAS or in non-transformed cells. Thereby, P14B might be considered as an inducer of apoptosis in CRC with oncogenic KRAS.
[…] Each point corresponds to n=6. The concentration (μM) indicated in the graph is the one in the final 100 μL volume). **** p<0.0001 (t-student test).

[3] = system: ERK and AKT in DLD-1 cells stably expressing HA-KRAS-G12V; assay: Western blot of AKT and ERK phosphorylation in DLD-1 cells stably expressing HA-KRAS-G12V; settings: serum-starved DLD-1 cells stably expressing HA-KRAS-G12V
Text: as §1
Cells were seeded in a media containing 10% FBS for 24 hours and then they were serum starved (0.1% FBS) for the next 24 hours. Afterwards, they were incubated with the different compounds during the times specified in each figure. When indicated, also in order to activate downstream KRAS cell signalling, treatment for 10 minutes with EGF (50 ng/mL) (Sigma-Aldrich) was performed. […]
We assessed the possibility that P14B favors RAS-effector binding and consequently increases downstream RAS signaling. […] The interaction was analyzed after 10 min of P14B treatment since P—C-RAF and P-MEK were observed after 15 min (FIG. 3C). […]

DLD-1 cells [4] = assay: Cleaved caspase-3 Western blot, DLD-1; settings: DLD-1 cells treated 34 h or 48 h
Experimental: (§3) FIG. 6C is a blot showing extracts of DLD-1, DLD-1-KO and RPE cells at 34 h. and 48 h. DLD-1 cells treated with P14B for 36 h and 48 h were lysed and the expression of the apoptosis marker cleaved caspase-3 was analyzed by Western blot. Cells treated with the apoptosis inducer palmitic acid (PA) were used as a positive control.
(§4) Proteins were resolved by SDS-PAGE, transferred onto PVDF membranes (Immobilon-P, Millipore) and Western blot was performed as previously described (Cabot et al, Oncogene 2021). […]
(§5) Since both inhibition and sustained activation of RAS signaling are related to a decrease in cell survival, we analyzed the viability of the CRC cell lines DLD-1 (expressing oncogenic KRAS) and DLD-1-KO (oncogenic KRAS allele deleted), and the non-transformed cell line hTERT-RPE. […] The effect of P14B in DLD-1 cells cultured in 3D conditions was also determined. […]

DLD-1-KO cells [5] = assay: Cleaved caspase-3 Western blot, DLD-1-KO; settings: DLD-1-KO cells treated 34 h or 48 h
Experimental: as §3, §4, §5

DLD-1-KO cells [6] = assay: MTS cell viability assay, DLD-1-KO; settings: at approximately 80 μM
Text: as §1
as §2, with “10,000 cells in 50 µL of 10% FBS-containing medium, were cultured for 24 hours and then treated with the compounds (50 μL final volume) for 48 h hours in each well of a 96-well plate (100 μL final volume). MTS” for “MTS”, “wells. […]” for “wells.”

COc1ccc(C(c2c(C)n[nH]c2O)c2c(C)n[nH]c2O)cc1Oc1ccc([N+](=O)[O-])cc1 [Example P14B]
AKT and ERK activation [1]: AKT and ERK activation by P14B was also observed | levels of ERK phosphorylation compared with 10% FBS treatment [1]: significantly lower | maxim cell viability reduction compared with Erlotinib (DLD-1 cells [2]; DLD-1, 5000 cells, 48 h treatment): significantly higher | IC50 (DLD-1 cells [2]; DLD-1 cells, dose-response 0 to 100 μM, 24 hours): ~80 µM | cell viability (DLD-1 cells [2]; DLD-1 cells, specifically at 75 μM and 100 μM): significantly reduced the cell viability; also recorded: decreases the viability | phosphorylation of AKT and ERK [3]: induced phosphorylation of AKT and ERK | cleaved caspase-3 expression (DLD-1 cells [4]): only detected in DLD-1-treated cells | cleaved caspase-3 expression (DLD-1-KO cells [5]): undetectable | cell viability (DLD-1-KO cells [6]): not affected
